Data published in patent US8394814B2, “Method of purifying crude noscapine” (priority 2008, dated 2013).
Where two headings read alike, the source gives them in different places.

How the values were obtained:
[1] = assay type: physicochemical
Description: To characterize the solubility of noscapine in acetonitrile/water systems, the following experiment was conducted. […] The results of the solubility measurements are summarized in Table 3 and are summarized in a graph in FIG. 8.

[2] = assay type: physicochemical; settings: for Solubility: neutral pH
Description: To determine the solubility of noscapine in a variety of different solvents at neutral pH, the following experiment was conducted. Noscapine solubility was determined at ambient temperature (22° C.-23° C.) and at 50° C. by dissolving noscapine and noting the amount dissolved prior to saturation for the following solvents: acetone, acetonitrile, ethanol, isopropanol, methanol, pentanol, toluene, and water.

[3] = assay type: physicochemical; settings: for Solubility: room temperature; for Reduction of the solubility of noscapine by adding an equal amount of water: Table 1 compared with Table 2
Description: Noscapine solubility was also determined at room temperature for the following solvent mixtures, mixed in a roughly 1:1 ratio by weight: acetone:water, acetonitrile:water, chloroform:ethanol, toluene:ethanol. Solubilities were determined using methods similar to those described above, and the measured solubilities are summarized in Table 2.

COc1ccc2c(c1OC)C(=O)O[C@@H]2[C@H]1c2c(cc3c(c2OC)OCO3)CCN1C [noscapine]
Solubility ([1]; 0% acetonitrile by weight in water, 50° C.): 0.2 mg noscapine per gram of solve | Solubility ([1]; 0% acetonitrile by weight in water, 70° C.): 0.2 mg noscapine per gram of solve | Solubility ([1]; 20% acetonitrile by weight in water, 50° C.): 0.8 mg noscapine per gram of solve | Solubility ([1]; 20% acetonitrile by weight in water, 70° C.): 1.4 mg noscapine per gram of solve | Solubility ([1]; 40% acetonitrile by weight in water, 50° C.): 8.1 mg noscapine per gram of solve | Solubility ([1]; 40% acetonitrile by weight in water, 70° C.): 6.7 mg noscapine per gram of solve | Solubility ([1]; 60% acetonitrile by weight in water, 50° C.): 32.6 mg noscapine per gram of solve | Solubility ([1]; 60% acetonitrile by weight in water, 70° C.): 46.3 mg noscapine per gram of solve | Solubility ([1]; 80% acetonitrile by weight in water, 50° C.): 82.8 mg noscapine per gram of solve | Solubility ([1]; 80% acetonitrile by weight in water, 70° C.): 181.9 mg noscapine per gram of solve | Solubility ([1]; 100% acetonitrile by weight, 50° C.): 131.0 mg noscapine per gram of solve | Solubility ([1]; 100% acetonitrile by weight, 70° C.): 226.5 mg noscapine per gram of solve | Change of solubility in acetonitrile with temperature ([1]; acetonitrile, temperature increased from 22° C. to 50° C.): more than doubles | Increase of solubility in the acetonitrile/water mixture ([1]; between 0° C. and 70° C., acetonitrile concentrations of about 50% or above): up to 10 fold | Ratio of the solubility in pure acetonitrile to the solubility in pure water ([1]; solvent temperature 0° C.): about 78 | Ratio of the solubility in pure acetonitrile to the solubility in pure water ([1]; solvent temperature 70° C.): about 647 | Solubility ([2]; Acetone, 23° C.): 68.56 mg of noscapine/g of solvent | Solubility ([2]; Acetone, 50° C.): 145.98 mg of noscapine/g of solvent | Solubility ([2]; Acetonitrile, 23° C.): 52.33 mg of noscapine/g of solvent | Solubility ([2]; Acetonitrile, 50° C.): 151.21 mg of noscapine/g of solvent | Solubility ([2]; Chloroform, 23° C.): 504.11 mg of noscapine/g of solvent | Solubility ([2]; Ethanol, 50° C.): 5.90 mg of noscapine/g of solvent | Solubility ([2]; Isopropanol, 50° C.): 12.99 mg of noscapine/g of solvent | Solubility ([2]; Methanol, 50° C.): 1.81 mg of noscapine/g of solvent | Solubility ([2]; Pentanol, 50° C.): 12.29 mg of noscapine/g of solvent | Solubility ([2]; Toluene, 23° C.): 40.65 mg of noscapine/g of solvent | Solubility ([2]; Toluene, 50° C.): 59.99 mg of noscapine/g of solvent | Solubility ([2]; Water, 50° C.): 0.82 mg of noscapine/g of solvent | Solubility in words ([2]; chloroform): highly soluble | Solubility in words ([2]; water): nearly insoluble | Solubility ([3]; Acetone 49.4% / Water 50.6% by weight): 3.21 mg noscapine/g of solvent | Solubility ([3]; Acetonitrile 48.6% / Water 51.4% by weight): 1.06 mg noscapine/g of solvent | Solubility ([3]; Chloroform 50.0% / Ethanol 50.0% by weight): 73.34 mg noscapine/g of solvent | Solubility ([3]; Toluene 51.0% / Ethanol 49.0% by weight): 37.21 mg noscapine/g of solvent | Reduction of the solubility of noscapine by adding an equal amount of water ([3]; second solvent of 'acetone and water' as printed): about 98% | Reduction of the solubility of noscapine by adding an equal amount of water ([3]; solvent acetone): about 95%
